Data reported in PMC8129498, “Synthesis, Antitumor and Antiviral In Vitro Activities of New Benzotriazole-Dicarboxamide Derivatives” (Frontiers in Chemistry, 2021).

What was measured:
[1] = Cytotoxicity in Vero-76 cell-line (MTT); assay type: cell-based; settings: monkey (Cercopithecus aethiops), Vero-76 cells (mock-infected), mock-infected Vero-76 cells
Procedure: Vero-76 cells were seeded in 96-well plates at an initial density of 5 × 10^5 cells/ml, in Dulbecco’s Modified Eagle Medium (D-MEM) with L-glutamine and 25 mg/L kanamycin, supplemented with 10% FBS. Cell cultures were then incubated at 37°C in a humidified and 5% CO2 atmosphere, in the absence or presence of serial dilutions of test compounds. The test medium used for the cytotoxic assay as well as for antiviral assay contained 1% of the appropriate serum. Cell viability was determined after 48–96 h at 37°C by MTT method for Vero-76 ([Pauwels et al., 1988]).
(§1) The extent of cell growth/viability and viral multiplication, at each drug concentration tested, were expressed as percentage of untreated controls. Concentrations resulting in 50% inhibition (CC50 or EC50) were determined by linear regression analysis.

Poliovirus type-1 (Sb-1) = experiment: microbe, parasite or virus in culture; assay type: cell-based; settings: Enterovirus C, Vero 76, read-out: EC50, plaque reduction Sb-1
[2] = system: Coxsackievirus B5 (CV-B5); experiment: Plaque reduction assay, CV-B5 in Vero-76 monolayers; assay type: cell-based; settings: Enterovirus B
SK-MES1 = experiment: Antiproliferative assay (MTT), SK-MES1; assay type: cell-based; settings: Homo sapiens, SK-MES-1, 96 h, read-out: CC50 SK-MES1
Procedure: (§2) Cell lines were purchased from American Type Culture Collection (ATCC). The absence of mycoplasma contamination was checked periodically by the Hoechst staining method. Exponentially growing leukemia and lymphoma cells were seeded at 1 × 10^5 cells/ml in 96 well plates in RPMI-1640 medium, supplemented with 10% fetal bovine serum, 100 units/ml penicillin G, and 100 μg/ml streptomycin, and incubated at 37°C in a humidified, 5% CO2 atmosphere in the absence or presence of serial dilutions of test compounds. Cell viability was determined after 96 h at 37°C by the 3-(4,5-dimethylthiazol-2-yl)-2,5-diphenyl-tetrazolium bromide (MTT) method. Activity against solid-tumor derived cells was evaluated in exponentially growing cultures seeded at 5 × 10^4 cells/ml and allowed to adhere for 16 h to culture plates before the addition of the drugs. Cell viability was determined by the MTT method 4 days later. Vincristine and doxorubicin were used as reference drugs.
as §1

CCRF-CEM = experiment: Antiproliferative assay (MTT), CCRF-CEM; assay type: cell-based, human; settings: Homo sapiens, CCRF-CEM, 96 h, read-out: CC50 CCRF-CEM
Procedure: as §2, §1

[3] = Antiproliferative assay (MTT), CRL 7065 control fibroblasts; assay type: cell-based, human; settings: human
Procedure: as §2, §1

DU145 = experiment: Antiproliferative assay (MTT), DU145; assay type: cell-based; settings: Homo sapiens, DU-145, 96 h, read-out: CC50 DU145
Procedure: as §2, §1

SK-MEL28 = experiment: Antiproliferative assay (MTT), SK-MEL28; assay type: cell-based; settings: Homo sapiens, SK-MEL-28, 96 h, read-out: CC50 SK-MEL28
Procedure: as §2, §1

CCRF-SB = experiment: Antiproliferative assay (MTT), CCRF-SB; assay type: cell-based; settings: Homo sapiens, 96 h, read-out: CC50 CCRF-SB
Procedure: as §2, §1

HeLa = experiment: Antiproliferative assay (MTT), HeLa; assay type: cell-based; settings: Homo sapiens, 96 h, read-out: CC50 HeLa
Procedure: as §2, §1

WIL-2NS = experiment: Antiproliferative assay (MTT), WIL-2NS; assay type: cell-based; settings: Homo sapiens, WIL2-NS, 96 h, read-out: CC50 WIL-2NS
Procedure: as §2, §1

Row | Compound | melting point [°C] | other results
1 | O=C(O)CCC(=O)Nc1ccc(Cn2nnc3ccccc32)cc1 | 193 to 195 | –
2 | O=C(O)CCCC(=O)Nc1ccc(Cn2nnc3ccccc32)cc1 | 152 to 154 | –
3 | O=C(O)CCCCC(=O)Nc1ccc(Cn2nnc3ccccc32)cc1 | 134 to 136 | –
4 | O=C(O)c1ccc(C(=O)Nc2ccc(Cn3nnc4ccccc43)cc2)cc1 | > 300 | –
5 | O=C(O)c1cccc(C(=O)Nc2ccc(Cn3nnc4ccccc43)cc2)n1 | 230 to 232 | –
6 | O=C(O)c1ccc(C(=O)Nc2ccc(Cn3nnc4ccccc43)cc2)s1 | > 300 | –
7 | Cc1cc2nnn(Cc3ccc(NC(=O)CCC(=O)O)cc3)c2cc1C | 218 to 220 | –
8 | Cc1cc2nnn(Cc3ccc(NC(=O)CCCC(=O)O)cc3)c2cc1C | 270 to 272 | –
9 | Cc1cc2nnn(Cc3ccc(NC(=O)CCCCC(=O)O)cc3)c2cc1C | 203 to 204 | –
10 | Cc1cc2nnn(Cc3ccc(NC(=O)/C=C/C(=O)O)cc3)c2cc1C | 256 to 258 | –
11 | Cc1cc2nnn(Cc3ccc(NC(=O)c4ccc(C(=O)O)cc4)cc3)c2cc1C | > 300 | –
12 | Cc1cc2nnn(Cc3ccc(NC(=O)c4cccc(C(=O)O)n4)cc3)c2cc1C | 214 to 216 | –
13 | Cc1cc2nnn(Cc3ccc(NC(=O)c4ccc(C(=O)O)s4)cc3)c2cc1C | > 300 | –
14 | O=C(O)CCC(=O)Nc1ccc(Cn2nnc3cc(Cl)c(Cl)cc32)cc1 | 214 to 216 | –
15 | O=C(O)CCCC(=O)Nc1ccc(Cn2nnc3cc(Cl)c(Cl)cc32)cc1 | 173 to 175 | –
16 | O=C(O)CCCCC(=O)Nc1ccc(Cn2nnc3cc(Cl)c(Cl)cc32)cc1 | 228 to 230 | –
17 | O=C(O)c1cccc(C(=O)Nc2ccc(Cn3nnc4cc(Cl)c(Cl)cc43)cc2)n1 | 175 to 177 | –
18 | O=C(CCC(=O)Nc1ccc(-n2nnc3cc(Cl)c(Cl)cc32)cc1)Nc1ccc(-n2nnc3cc(Cl)c(Cl)cc32)cc1 | 264 to 265 | –
19 | O=C(CCCCC(=O)Nc1ccc(-n2nnc3cc(Cl)c(Cl)cc32)cc1)Nc1ccc(-n2nnc3cc(Cl)c(Cl)cc32)cc1 | 293 to 294 | –
20 | O=C(Nc1ccc(-n2nnc3cc(Cl)c(Cl)cc32)cc1)c1ccc(C(=O)Nc2ccc(-n3nnc4cc(Cl)c(Cl)cc43)cc2)cc1 | 197 to 199 | –
21 | O=C(Nc1ccc(-n2nnc3cc(Cl)c(Cl)cc32)cc1)c1cccc(C(=O)Nc2ccc(-n3nnc4cc(Cl)c(Cl)cc43)cc2)n1 | > 300 | –
22 | O=C(O)c1cccc(C(=O)Nc2ccc(-n3nnc4cc(Cl)c(Cl)cc43)cc2)n1 | 240 | –
23 | O=C(Nc1ccc(-n2nc3cc(Cl)c(Cl)cc3n2)cc1)c1ccc(C(=O)Nc2ccc(-n3nc4cc(Cl)c(Cl)cc4n3)cc2)cc1 | > 300 | –
24 | O=C(Nc1ccc(-n2nc3cc(Cl)c(Cl)cc3n2)cc1)c1cccc(C(=O)Nc2ccc(-n3nc4cc(Cl)c(Cl)cc4n3)cc2)n1 | > 300 | –
25 | O=C(Nc1ccc(-n2nc3cc(Cl)c(Cl)cc3n2)cc1)c1ccc(C(=O)Nc2ccc(-n3nc4cc(Cl)c(Cl)cc4n3)cc2)s1 | > 300 | –

Row | Compound | melting point [°C] | other results
26 | O=C(O)c1cccc(C(=O)Nc2ccc(-n3nc4cc(Cl)c(Cl)cc4n3)cc2)n1 | 240 | –
27 | O=C(CCC(=O)Nc1ccc(Cn2nnc3ccccc32)cc1)Nc1ccc(Cn2nnc3ccccc32)cc1 | 255 to 257 | –
28 | O=C(CCCC(=O)Nc1ccc(Cn2nnc3ccccc32)cc1)Nc1ccc(Cn2nnc3ccccc32)cc1 | 237 to 238 | –
29 | O=C(CCCCC(=O)Nc1ccc(Cn2nnc3ccccc32)cc1)Nc1ccc(Cn2nnc3ccccc32)cc1 | 231 to 232 | –
30 | O=C(Nc1ccc(Cn2nnc3ccccc32)cc1)c1ccc(C(=O)Nc2ccc(Cn3nnc4ccccc43)cc2)cc1 | > 300 | –
31 | O=C(Nc1ccc(Cn2nnc3ccccc32)cc1)c1cccc(C(=O)Nc2ccc(Cn3nnc4ccccc43)cc2)n1 | 111 to 112 | –
32 | O=C(Nc1ccc(Cn2nnc3ccccc32)cc1)c1ccc(C(=O)Nc2ccc(Cn3nnc4ccccc43)cc2)s1 | > 300 | –
33 | Cc1cc2nnn(Cc3ccc(NC(=O)CCC(=O)Nc4ccc(Cn5nnc6cc(C)c(C)cc65)cc4)cc3)c2cc1C | 270 to 272 | –
34 | Cc1cc2nnn(Cc3ccc(NC(=O)CCCC(=O)Nc4ccc(Cn5nnc6cc(C)c(C)cc65)cc4)cc3)c2cc1C | 253 to 255 | –
35 | Cc1cc2nnn(Cc3ccc(NC(=O)CCCCC(=O)Nc4ccc(Cn5nnc6cc(C)c(C)cc65)cc4)cc3)c2cc1C | 283 to 285 | –
36 | Cc1cc2nnn(Cc3ccc(NC(=O)/C=C/C(=O)Nc4ccc(Cn5nnc6cc(C)c(C)cc65)cc4)cc3)c2cc1C | 117 to 119 | –
37 | Cc1cc2nnn(Cc3ccc(NC(=O)c4cccc(C(=O)Nc5ccc(Cn6nnc7cc(C)c(C)cc76)cc5)n4)cc3)c2cc1C | 186 to 188 | –
38 | Cc1cc2nnn(Cc3ccc(NC(=O)c4ccc(C(=O)Nc5ccc(Cn6nnc7cc(C)c(C)cc76)cc5)s4)cc3)c2cc1C | 225 to 227 | –
39 | O=C(CCCCC(=O)Nc1ccc(Cn2nnc3cc(Cl)c(Cl)cc32)cc1)Nc1ccc(Cn2nnc3cc(Cl)c(Cl)cc32)cc1 | > 300 | –
40 | O=C(/C=C/C(=O)Nc1ccc(Cn2nnc3cc(Cl)c(Cl)cc32)cc1)Nc1ccc(Cn2nnc3cc(Cl)c(Cl)cc32)cc1 | > 300 | –
41 | O=C(Nc1ccc(Cn2nnc3cc(Cl)c(Cl)cc32)cc1)c1cccc(C(=O)Nc2ccc(Cn3nnc4cc(Cl)c(Cl)cc43)cc2)n1 | > 300 | –
42 | O=C(Nc1ccc(Cn2nnc3cc(Cl)c(Cl)cc32)cc1)c1ccc(C(=O)Nc2ccc(Cn3nnc4cc(Cl)c(Cl)cc43)cc2)s1 | > 300 | –
43 | C#C[C@@]1(O)[C@H](O)[C@@H](CO)O[C@H]1n1ccc(N)nc1=O [Compound 2ec, 2′-C-ethynyl-cytidine, reference compound] | – | CC50 [1]: > 100 µM; EC50 (Poliovirus type-1 (Sb-1)): 23 µM
44 | O=C(O)CCC(=O)Nc1ccc(-n2nnc3cc(Cl)c(Cl)cc32)cc1 [Compound 4a, 4-((4-(5,6-Dichloro-1H-Benzo[d][1,2,3]Triazol-1-yl)phenyl)amino)-4-oxobutanoic Acid] | 163 to 164 | CC50 [1]: 90 µM; EC50 [2]: 13 µM; EC50 (Poliovirus type-1 (Sb-1)): > 90 µM
45 | O=C(O)CCCC(=O)Nc1ccc(-n2nnc3cc(Cl)c(Cl)cc32)cc1 [Compound 4b, 5-((4-(5,6-Dichloro-1H-Benzo[d][1,2,3]Triazol-1-yl)phenyl)amino)-5-oxopentanoic Acid] | 106 to 108 | CC50 [1]: > 100 µM; EC50 [2]: 45 µM; EC50 (Poliovirus type-1 (Sb-1)): 44 µM
46 | O=C(O)CCCCC(=O)Nc1ccc(-n2nnc3cc(Cl)c(Cl)cc32)cc1 [Compound 4c, 6-((4-(5,6-Dichloro-1H-Benzo[d][1,2,3]Triazol-1-yl)phenyl)amino)-6-oxohexanoic Acid] | 148 to 150 | CC50 [1]: 37 µM; EC50 [2]: 9 µM; EC50 (Poliovirus type-1 (Sb-1)): > 37 µM
47 | O=C(CCC(=O)Nc1ccc(Cn2nnc3cc(Cl)c(Cl)cc32)cc1)Nc1ccc(Cn2nnc3cc(Cl)c(Cl)cc32)cc1 [Compound 9a, N ^1,N ^4-Bis(4-((5,6-Dichloro-1H-Benzo[d][1,2,3]Triazol-1-yl)methyl)phenyl)Succinamide] | > 300 | CC50 [1]: > 100 µM; EC50 [2]: 23 µM; EC50 (Poliovirus type-1 (Sb-1)): 43 µM
48 | COc1cccc2c1C(=O)c1c(O)c3c(c(O)c1C2=O)C[C@@](O)(C(=O)CO)C[C@@H]3O[C@H]1C[C@H](N)[C@H](O)[C@H](C)O1 [Doxorubicin, reference compound] | – | CC50 (SK-MES1): 650 ± 50 nM; CC50 (CCRF-CEM): 20 ± 10 nM; CC50 at 96 h [3]: 2000 ± 200 nM; CC50 (DU145): 300 ± 100 nM; CC50 (SK-MEL28): 1100 ± 200 nM; CC50 (CCRF-SB): 30 ± 20 nM; CC50 (HeLa): 1800 ± 200 nM; CC50 (WIL-2NS): 60 ± 10 nM
49 | Cc1cc(CCCOc2c(C)cc(-c3noc(C(F)(F)F)n3)cc2C)on1 [P, Pleconaril, reference compound] | – | CC50 [1]: > 100 µM; EC50 [2]: 0.005 µM
